Measured values: patent US20260069584A1, “METHODS OF TREATING CHRONIC MYELOID LEUKEMIA USING THE TYROSINE KINASE INHIBITOR VODOBATINIB” (Sun Pharma Advanced Research Company Ltd., priority 2022, published 2026)

How the values were obtained:
[1] = test system: Ph+ CML (CP CML, AP CML, and BP CML); assay: Phase 2 open-label study (Part C) in CML resistant or intolerant to ≥3 prior TKIs including ponatinib: disease response; type: in vivo, human
Protocol: A multicenter open-label study in subjects with CML (CP CML, AP CML, and BP CML) who documented resistance or intolerance to more than or equal to 3 prior TKIs one of which included ponatinib was performed. The subjects for this were grouped as follows: • a) Cohort A—Ph+ CML: Chronic phase (CP CML) cohort • b) Cohort B—Ph+ CML: Accelerated phase (AP) cohort • c) Cohort C—Ph+ CML: Blast phase (BP) cohort.
The primary objective of this study was to evaluate the efficacy of the compound of Formula I in CP CML patients by cytogenetic outcomes and in AP CML and BP CML patients by hematologic outcomes. Secondary objectives included evaluation of anti-leukemic efficacy of compound of Formula I by molecular outcomes, hematological outcomes in CP CML patients, and by cytogenetic outcomes in AP CML and BP CML; time to first hematologic response; duration of response; progression-free survival (PFS) and overall survival (OS), population PK of the compound of Formula I and safety.
The selection criteria for subjects (Both inclusion and exclusion) were the same as those set forth above study, except for the following: Subjects had to be previously treated with ≥3 prior TKIs including the 3rd generation TKI, ponatinib; subjects with Ph+ ALL were not included in this study; subjects with presence of T3151 mutations were excluded in the study. Limited to no response on a TKI therapy is reported in CML patients post-ponatinib treatment (Leuk Lymphoma 2018 June; 59 (6): 1312-1322).
Patients were followed for survival by telephone survey.
The Compound of Formula I with 174 mg as capsules was administered orally once daily continuously in 4-week cycles. Patients self-administered the compound of Formula I on an outpatient basis at approximately the same time each morning after overnight fasting or fasting ˜2 hours before and after dosing.
Bone marrow aspirate samples were sent for review of cytogenetics by conventional Giemsa staining method (karyotyping). Fluorescence in situ hybridization (FISH) was performed on bone marrow aspirates only in cases of subjects who had achieved complete cytogenetic response (confirmed by karyotyping) with the studied drug and who had minimum residual disease. FISH was also used if a sufficient sample was not available for conducting the Giemsa staining method (karyotyping).
Standard cytogenetic methods were used to determine the presence of the Ph+ and its presence (percentage) in the bone marrow. At least 20 cells in metaphase were evaluated for karyotyping. Bone marrow cytogenetics was scheduled to be performed within 7 days of the scheduled date irrespective of missed doses or disease or dose-associated AEs.
Molecular response monitoring (MMR) using PCR for BCR-ABL copy number was performed on the collected blood samples and was assessed using the international scale (IS).
The hematologic response was evaluated by peripheral blood utilizing local laboratory results.

[2] = Oral toxicity study in Wistar Rats; conditions: rat, in vivo
[3] = Pharmacokinetics in CML patients by dose cohort; conditions: for Cmin: cycle 2, CML patients, oral; for AUC(0-t) / Cmax: human, plasma, po
Protocol: A±5 minutes window permitted till 4 hours PK sample collection. A±10 minutes window permitted for subsequent PK sample collection. Days 3, 8, 15, and 22 of Cycle 1:30 (±10) minutes Predose only. […] A #5 minutes window permitted till 4 hours PK sample collection. A #10 minutes window permitted for subsequent PK sample collection. Days 8, 15, and 22 of Cycle 2:30 (±10) minutes Predose only. Cycle 3 onwards: Predose samples on Day 1.
Pharmacokinetic analysis was performed using non-compartmental analysis. The actual elapsed time from dose was used in the final PK parameter calculations. Plasma concentrations and PK parameters for the compound of Formula I were listed and summarized by dose cohort using descriptive statistics (n, mean, standard deviation, minimum, median, and maximum). Geometric mean and geometric coefficient of variation were calculated for PK parameters. Additionally, mean concentration profiles by dose cohort and cycle were illustrated. Dose proportionality of Cmax and AUC(0-24) was assessed graphically for Cycle 1 and Cycle 2. Dose proportionality was statistically evaluated using the power model approach, whenever the number of patients was at least 3 for a given cohort. Time to steady-state (Ctrough) was evaluated graphically. Differences among dose levels in CL/F and V/F, and dose-normalized Cmax and AUC(0-24) were explored using an analysis of variance.
The PK parameters for the study were summarized by treatment using descriptive (N, n, mean, standard deviation [SD], coefficient of variation [CV] % minimum, median, maximum, geometric mean and CV %) statistics, except for Tmax. For Tmax, the number of subjects, minimum, median, and maximum are reported.

Cc1ccc(C(=O)NNC(=O)c2c(C)cccc2Cl)cc1C#Cc1cnc2ccccc2c1 [compound of Formula I, N′-(2-chloro-6-methylbenzoyl)-4-methyl-3-[2-(3-quinolyl)ethynyl]-benzohydrazide]
Best Cytogenetic Response: Complete Cytogenetic Response ([1]; 174 mg (N = 7)): 1 (14.3%) | Best Cytogenetic Response: Major Cytogenetic Response ([1]; 174 mg (N = 7)): 2 (28.6%) | Best Cytogenetic Response: Minimal Cytogenetic Response ([1]; 174 mg (N = 7)): 0 | Best Cytogenetic Response: Minor Cytogenetic Response ([1]; 174 mg (N = 7)): 0 | Best Cytogenetic Response: No Response ([1]; 174 mg (N = 7)): 2 (28.6%) | Best Cytogenetic Response: Partial Cytogenetic Response ([1]; 174 mg (N = 7)): 1 (14.3%) | Best Hematologic Response: Complete Hematologic Response ([1]; 174 mg (N = 7)): 6 (85.7%) | Best Hematologic Response: Major Hematologic Response ([1]; 174 mg (N = 7)): 6 (85.7%) | Best Hematologic Response: No Evidence of Leukemia ([1]; 174 mg (N = 7)): 0 | Best Hematologic Response: No Response ([1]; 174 mg (N = 7)): 1 (14.3%) | Best Molecular Response: Complete Response ([1]; 174 mg (N = 7)): 0 | Best Molecular Response: Major Response ([1]; 174 mg (N = 7)): 1 (14.3%) | Best Molecular Response: No Response ([1]; 174 mg (N = 7)): 4 (57.1%) | Major molecular response (MMR) as best response ([1]; 1 of the 7 enrolled subjects, 174 mg): 14.3% | Complete hematological response (CHR) as best response ([1]; 2 of the 2 AP-CML enrolled subjects): 100% | Major cytogenetic response (MCyR) as best response ([1]; 2 of the 7 enrolled subjects, 174 mg): 28.6% | major hematological response (MaHR) as best response ([1]; 6 of the 7 enrolled subjects, 174 mg): 85.7% | Major molecular response (MMR) as best response ([1]; 6 of the 13 enrolled CP-CML subjects): 46.2% | achieved MaHR in the study ([1]; 7 enrolled subjects, 174 mg): 5 subjects | came into the study in MaHR and maintained it ([1]; 7 enrolled subjects, 174 mg): 1 subject | Major cytogenetic response (MCyR) as best response ([1]; 11 CP-CML enrolled subjects): 84.6% | Complete hematological response (CHR) as best response ([1]; 13 of the 15 CP-CML enrolled subjects): 86.7% | achieved CHR in study ([1]; CP-CML, of 13): 9 subjects | came into the study in CHR and maintained it ([1]; CP-CML, of 13): 4 subjects | developed CCyR ([1]; CP-CML, of the 13 subjects): 61.5% | NOAEL [2]: 100 mg/kg/day | Cmin ([3]; dose cohort 12): 61.8 | Cmin ([3]; dose cohort 24): 114 | Cmin ([3]; dose cohort 48): 261 | Cmin ([3]; dose cohort 66): 102.7 | Cmin ([3]; dose cohort 90): 363 | Cmin ([3]; dose cohort 126): 831 | Cmin ([3]; dose cohort 174): 254 | Cmin ([3]; dose cohort 204): 427 | increase of mean exposures (AUC) with dose ([3]; doses above 174 mg): sub-proportional increase or plateauing of exposures | AUC(0-t) ([3]; 12 mg): 3330 ng·h/mL | Cmax ([3]; 12 mg): 685 ng/mL | AUC(0-t) ([3]; 24 mg): 5070 ng·h/mL | Cmax ([3]; 24 mg): 589 ng/mL | AUC(0-t) ([3]; 48 mg): 13700 ng·h/mL | Cmax ([3]; 48 mg): 1090 ng/mL | AUC(0-t) ([3]; 66 mg): 7780 ng·h/mL | Cmax ([3]; 66 mg): 830 ng/mL | AUC(0-t) ([3]; 90 mg): 22800 ng·h/mL | Cmax ([3]; 90 mg): 2860 ng/mL | AUC(0-t) ([3]; 126 mg): 50300 ng·h/mL | Cmax ([3]; 126 mg): 4100 ng/mL | AUC(0-t) ([3]; 174 mg): 35700 ng·h/mL | Cmax ([3]; 174 mg): 4210 ng/mL | steady state reached (trough concentrations) ([3]; majority of the subjects): ≤ 3 days | accumulation at steady state ([3]; once-daily dosing): no low or minimal accumulation
